Columns and labels:
Assay in all cases: biochemical
Assay type in all cases: binding
[1] = molecular target: T1, panel of 442 kinases (Homo sapiens, UniProt Q8IU85); conditions: CAMK1D; for remaining activity at 1 µM: read-out: % of control at 1 µM
T1 construct: purchased Ambit Biosciences (scanMAXX KINOMEscan)

[2] = molecular target: T2, panel of 442 kinases (Homo sapiens, UniProt P22607); conditions: FGFR3; for remaining activity at 1 µM: read-out: % of control at 1 µM
T2 construct: purchased Ambit Biosciences (scanMAXX KINOMEscan)

[3] = molecular target: T3, panel of 442 kinases (Homo sapiens, UniProt O14965); conditions: AURKA; for remaining activity at 1 µM: read-out: % of control at 1 µM
T3 construct: purchased Ambit Biosciences (scanMAXX KINOMEscan)
T3 sequence (O14965 1-403): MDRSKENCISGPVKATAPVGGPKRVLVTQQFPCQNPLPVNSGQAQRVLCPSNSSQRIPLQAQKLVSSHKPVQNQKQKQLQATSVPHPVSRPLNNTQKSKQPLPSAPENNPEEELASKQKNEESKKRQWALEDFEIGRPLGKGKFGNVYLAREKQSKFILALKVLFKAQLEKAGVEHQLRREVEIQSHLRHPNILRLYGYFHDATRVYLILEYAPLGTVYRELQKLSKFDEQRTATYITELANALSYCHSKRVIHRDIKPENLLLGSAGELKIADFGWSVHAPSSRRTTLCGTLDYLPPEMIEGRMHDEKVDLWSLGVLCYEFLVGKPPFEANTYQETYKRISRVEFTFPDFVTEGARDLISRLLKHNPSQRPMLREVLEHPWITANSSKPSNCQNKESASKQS

[4] = molecular target: T4, panel of 442 kinases (Homo sapiens, UniProt Q9H422); conditions: kinase HIPK3; for remaining activity at 1 µM: read-out: % of control at 1 µM
T4 construct: purchased Ambit Biosciences (scanMAXX KINOMEscan)

[5] = molecular target: T5, panel of 442 kinases (Homo sapiens, UniProt P12931); conditions: kinase SRC; for remaining activity at 1 µM: read-out: SRC (% of control at 1 µM)
T5 construct: purchased Ambit Biosciences (scanMAXX KINOMEscan)

[6] = molecular target: T6, panel of 442 kinases (Homo sapiens, UniProt Q99683); conditions: ASK1; for remaining activity at 1 µM: read-out: % of control at 1 µM
T6 construct: purchased Ambit Biosciences (scanMAXX KINOMEscan)
T6 sequence (Q99683 1-1374): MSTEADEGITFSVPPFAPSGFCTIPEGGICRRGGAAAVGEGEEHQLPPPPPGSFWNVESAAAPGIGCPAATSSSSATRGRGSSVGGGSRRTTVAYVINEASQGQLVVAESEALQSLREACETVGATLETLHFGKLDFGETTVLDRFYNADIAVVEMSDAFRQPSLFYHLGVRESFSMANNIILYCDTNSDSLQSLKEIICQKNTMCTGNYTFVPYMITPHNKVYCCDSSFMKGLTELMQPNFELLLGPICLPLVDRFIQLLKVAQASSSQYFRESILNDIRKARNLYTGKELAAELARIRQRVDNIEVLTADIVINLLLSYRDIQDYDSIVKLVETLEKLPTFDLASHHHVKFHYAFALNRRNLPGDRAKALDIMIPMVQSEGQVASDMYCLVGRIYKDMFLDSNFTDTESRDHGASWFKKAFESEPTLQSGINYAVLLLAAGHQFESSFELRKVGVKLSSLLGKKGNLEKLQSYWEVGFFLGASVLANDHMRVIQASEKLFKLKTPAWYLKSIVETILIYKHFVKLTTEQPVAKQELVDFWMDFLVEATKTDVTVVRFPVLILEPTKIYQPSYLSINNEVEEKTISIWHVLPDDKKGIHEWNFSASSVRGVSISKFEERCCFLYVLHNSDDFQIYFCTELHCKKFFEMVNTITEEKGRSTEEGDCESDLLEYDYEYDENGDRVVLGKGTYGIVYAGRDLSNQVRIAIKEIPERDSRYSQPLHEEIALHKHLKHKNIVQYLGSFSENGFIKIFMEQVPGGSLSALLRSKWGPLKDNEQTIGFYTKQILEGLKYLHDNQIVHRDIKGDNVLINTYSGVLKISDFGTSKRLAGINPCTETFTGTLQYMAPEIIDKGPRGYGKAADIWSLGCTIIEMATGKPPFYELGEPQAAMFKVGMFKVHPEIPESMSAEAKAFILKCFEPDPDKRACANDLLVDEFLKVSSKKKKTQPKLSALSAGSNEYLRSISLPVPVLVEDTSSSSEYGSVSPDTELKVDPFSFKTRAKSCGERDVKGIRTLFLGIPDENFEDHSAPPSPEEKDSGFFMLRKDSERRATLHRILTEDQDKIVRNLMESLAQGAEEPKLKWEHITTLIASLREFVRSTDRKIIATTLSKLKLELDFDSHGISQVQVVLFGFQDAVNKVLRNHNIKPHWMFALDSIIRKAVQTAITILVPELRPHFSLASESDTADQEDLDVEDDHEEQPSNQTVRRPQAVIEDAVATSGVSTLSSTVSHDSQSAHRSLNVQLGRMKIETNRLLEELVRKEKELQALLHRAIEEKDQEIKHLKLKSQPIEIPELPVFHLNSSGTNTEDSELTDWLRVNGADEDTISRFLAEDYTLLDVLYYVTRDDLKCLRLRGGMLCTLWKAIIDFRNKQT

[7] = molecular target: T7, panel of 442 kinases (Homo sapiens, UniProt P31749); conditions: AKT1; for remaining activity at 1 µM: read-out: % of control at 1 µM
T7 construct: purchased Ambit Biosciences (scanMAXX KINOMEscan)

[8] = molecular target: T8, panel of 442 kinases (Plasmodium falciparum, UniProt P62344); conditions: kinase PFCDPK1(P.falciparum); for remaining activity at 1 µM: read-out: % of control at 1 µM; for remaining activity at 10 µM: read-out: % of control at 10 µM
T8 construct: purchased Ambit Biosciences (scanMAXX KINOMEscan)

[9] = molecular target: T9, panel of 442 kinases (Homo sapiens, UniProt Q8TDR2); conditions: kinase STK35; for remaining activity at 1 µM: read-out: STK35 (% of control at 1 µM)
T9 construct: purchased Ambit Biosciences (scanMAXX KINOMEscan)

[10] = molecular target: T10, panel of 442 kinases (Homo sapiens, UniProt Q9H0K1); conditions: kinase SIK2; for remaining activity at 1 µM: read-out: SIK2 (% of control at 1 µM)
T10 construct: purchased Ambit Biosciences (scanMAXX KINOMEscan)

[11] = molecular target: T11, panel of 442 kinases (Homo sapiens, UniProt Q8IVW4); conditions: CDKL3; for remaining activity at 1 µM: read-out: % of control at 1 µM
T11 construct: purchased Ambit Biosciences (scanMAXX KINOMEscan)

[12] = 10 µM, read-out: % of control at 10 µM

T11 sequence (Q8IVW4 whole entry): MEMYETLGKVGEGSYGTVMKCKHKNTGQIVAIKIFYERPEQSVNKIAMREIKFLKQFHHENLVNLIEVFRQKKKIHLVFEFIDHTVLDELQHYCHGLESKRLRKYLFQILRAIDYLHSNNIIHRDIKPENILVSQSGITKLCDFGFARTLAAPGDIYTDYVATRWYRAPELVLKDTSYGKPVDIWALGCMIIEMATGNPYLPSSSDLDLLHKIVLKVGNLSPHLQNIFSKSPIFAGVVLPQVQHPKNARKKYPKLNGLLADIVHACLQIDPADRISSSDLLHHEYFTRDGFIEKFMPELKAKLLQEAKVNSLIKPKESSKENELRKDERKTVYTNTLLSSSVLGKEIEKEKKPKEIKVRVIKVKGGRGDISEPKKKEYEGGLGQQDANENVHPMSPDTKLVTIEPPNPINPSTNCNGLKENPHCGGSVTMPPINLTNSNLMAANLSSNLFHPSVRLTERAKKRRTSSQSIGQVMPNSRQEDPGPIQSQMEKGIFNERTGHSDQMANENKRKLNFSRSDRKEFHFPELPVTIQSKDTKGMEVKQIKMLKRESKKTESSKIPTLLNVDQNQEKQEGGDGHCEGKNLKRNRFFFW
T2 sequence (P22607 23-806): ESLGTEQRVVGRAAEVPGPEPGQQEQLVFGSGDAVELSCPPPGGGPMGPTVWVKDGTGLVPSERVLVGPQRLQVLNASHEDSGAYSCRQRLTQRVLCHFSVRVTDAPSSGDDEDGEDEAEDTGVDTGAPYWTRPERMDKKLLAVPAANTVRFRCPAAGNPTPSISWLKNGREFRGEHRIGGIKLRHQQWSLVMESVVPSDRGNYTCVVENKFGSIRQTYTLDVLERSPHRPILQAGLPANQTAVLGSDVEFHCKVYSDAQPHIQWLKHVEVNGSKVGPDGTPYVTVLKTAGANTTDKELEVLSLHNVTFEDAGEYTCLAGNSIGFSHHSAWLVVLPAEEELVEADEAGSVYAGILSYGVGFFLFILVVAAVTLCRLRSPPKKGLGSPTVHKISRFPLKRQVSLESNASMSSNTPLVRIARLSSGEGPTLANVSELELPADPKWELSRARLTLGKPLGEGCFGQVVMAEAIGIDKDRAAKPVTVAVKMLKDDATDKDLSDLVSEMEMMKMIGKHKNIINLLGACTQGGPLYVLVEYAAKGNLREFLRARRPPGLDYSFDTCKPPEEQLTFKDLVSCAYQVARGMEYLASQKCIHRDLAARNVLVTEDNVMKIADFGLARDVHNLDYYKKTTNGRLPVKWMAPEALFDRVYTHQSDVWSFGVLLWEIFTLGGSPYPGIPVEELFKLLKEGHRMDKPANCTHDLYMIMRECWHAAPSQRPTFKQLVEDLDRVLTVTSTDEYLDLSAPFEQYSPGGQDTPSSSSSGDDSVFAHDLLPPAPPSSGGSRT
T5 sequence (P12931 whole entry): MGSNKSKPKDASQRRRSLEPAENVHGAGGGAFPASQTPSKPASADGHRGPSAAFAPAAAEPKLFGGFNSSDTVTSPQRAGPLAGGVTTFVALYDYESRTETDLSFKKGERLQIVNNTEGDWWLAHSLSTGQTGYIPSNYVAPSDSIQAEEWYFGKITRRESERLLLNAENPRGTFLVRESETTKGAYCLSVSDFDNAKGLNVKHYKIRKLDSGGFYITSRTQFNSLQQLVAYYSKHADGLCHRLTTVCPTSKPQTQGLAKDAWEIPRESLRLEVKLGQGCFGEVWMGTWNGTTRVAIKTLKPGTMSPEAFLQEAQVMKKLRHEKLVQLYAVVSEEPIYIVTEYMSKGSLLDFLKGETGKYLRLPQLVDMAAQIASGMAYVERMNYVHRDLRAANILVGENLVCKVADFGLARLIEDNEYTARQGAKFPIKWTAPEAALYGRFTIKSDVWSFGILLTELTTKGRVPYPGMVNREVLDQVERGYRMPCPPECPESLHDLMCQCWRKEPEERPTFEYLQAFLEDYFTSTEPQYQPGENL
T8 sequence (P62344 whole entry): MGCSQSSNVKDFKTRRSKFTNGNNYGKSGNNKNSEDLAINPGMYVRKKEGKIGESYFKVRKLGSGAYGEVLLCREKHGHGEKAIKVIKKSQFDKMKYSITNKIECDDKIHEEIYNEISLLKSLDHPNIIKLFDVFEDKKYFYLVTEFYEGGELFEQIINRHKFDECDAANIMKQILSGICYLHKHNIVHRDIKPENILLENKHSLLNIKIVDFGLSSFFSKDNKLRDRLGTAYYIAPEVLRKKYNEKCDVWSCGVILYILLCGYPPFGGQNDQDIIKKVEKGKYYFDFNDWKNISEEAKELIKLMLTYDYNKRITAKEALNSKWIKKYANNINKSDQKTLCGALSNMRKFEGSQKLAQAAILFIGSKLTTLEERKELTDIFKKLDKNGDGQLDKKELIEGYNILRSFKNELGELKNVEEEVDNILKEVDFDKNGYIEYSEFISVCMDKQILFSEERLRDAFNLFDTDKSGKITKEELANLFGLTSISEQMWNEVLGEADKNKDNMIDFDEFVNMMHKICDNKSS
T10 sequence (Q9H0K1 whole entry): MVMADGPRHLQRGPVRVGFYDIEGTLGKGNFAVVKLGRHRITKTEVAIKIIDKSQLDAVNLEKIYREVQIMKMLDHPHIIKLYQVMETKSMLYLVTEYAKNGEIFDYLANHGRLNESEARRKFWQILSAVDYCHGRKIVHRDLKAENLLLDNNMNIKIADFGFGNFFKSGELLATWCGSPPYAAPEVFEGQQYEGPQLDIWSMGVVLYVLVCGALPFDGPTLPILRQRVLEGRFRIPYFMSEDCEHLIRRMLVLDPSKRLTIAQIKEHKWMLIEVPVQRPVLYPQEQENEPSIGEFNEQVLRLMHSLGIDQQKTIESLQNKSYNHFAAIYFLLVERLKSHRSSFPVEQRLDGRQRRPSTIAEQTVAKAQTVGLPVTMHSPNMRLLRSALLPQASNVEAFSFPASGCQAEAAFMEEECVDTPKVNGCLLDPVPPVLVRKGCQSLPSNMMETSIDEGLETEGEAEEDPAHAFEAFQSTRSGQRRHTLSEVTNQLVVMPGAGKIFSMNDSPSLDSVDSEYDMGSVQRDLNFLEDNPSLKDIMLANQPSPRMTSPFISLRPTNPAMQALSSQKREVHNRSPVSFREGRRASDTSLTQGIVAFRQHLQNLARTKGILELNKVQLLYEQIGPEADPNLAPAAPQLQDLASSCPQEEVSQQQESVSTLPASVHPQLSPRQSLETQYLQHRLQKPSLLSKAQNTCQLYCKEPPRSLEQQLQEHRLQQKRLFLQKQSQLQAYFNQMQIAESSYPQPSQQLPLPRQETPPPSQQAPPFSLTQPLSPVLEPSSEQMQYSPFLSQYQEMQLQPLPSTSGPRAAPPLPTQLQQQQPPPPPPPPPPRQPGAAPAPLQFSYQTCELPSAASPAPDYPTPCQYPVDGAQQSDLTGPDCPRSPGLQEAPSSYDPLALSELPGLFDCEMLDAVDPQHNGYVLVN
T9 sequence (Q8TDR2 whole entry): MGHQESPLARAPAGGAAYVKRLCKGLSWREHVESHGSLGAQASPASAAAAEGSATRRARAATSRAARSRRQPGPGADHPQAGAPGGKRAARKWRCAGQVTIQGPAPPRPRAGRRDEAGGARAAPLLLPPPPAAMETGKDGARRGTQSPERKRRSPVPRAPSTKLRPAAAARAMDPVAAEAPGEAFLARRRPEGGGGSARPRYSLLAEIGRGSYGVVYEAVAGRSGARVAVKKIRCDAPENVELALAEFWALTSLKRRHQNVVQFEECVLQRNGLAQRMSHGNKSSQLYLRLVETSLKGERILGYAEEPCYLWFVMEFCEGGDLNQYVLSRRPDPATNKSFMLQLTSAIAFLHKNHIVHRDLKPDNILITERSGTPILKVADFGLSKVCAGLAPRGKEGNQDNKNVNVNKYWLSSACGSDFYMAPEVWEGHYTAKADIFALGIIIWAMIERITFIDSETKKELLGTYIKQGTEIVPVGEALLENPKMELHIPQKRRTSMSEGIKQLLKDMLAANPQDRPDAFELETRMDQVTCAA
T1 sequence (Q8IU85 whole entry): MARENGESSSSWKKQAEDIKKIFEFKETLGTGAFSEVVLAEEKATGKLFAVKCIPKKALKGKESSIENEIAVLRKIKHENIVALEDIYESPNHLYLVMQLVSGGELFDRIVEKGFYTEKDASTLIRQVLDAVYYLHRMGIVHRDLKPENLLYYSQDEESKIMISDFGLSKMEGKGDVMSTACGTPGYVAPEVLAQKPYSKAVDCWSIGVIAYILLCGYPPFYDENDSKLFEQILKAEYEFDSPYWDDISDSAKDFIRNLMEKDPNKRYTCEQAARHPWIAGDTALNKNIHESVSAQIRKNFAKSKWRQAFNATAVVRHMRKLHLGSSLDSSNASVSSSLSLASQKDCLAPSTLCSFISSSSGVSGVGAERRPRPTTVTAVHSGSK
T7 sequence (P31749 whole entry): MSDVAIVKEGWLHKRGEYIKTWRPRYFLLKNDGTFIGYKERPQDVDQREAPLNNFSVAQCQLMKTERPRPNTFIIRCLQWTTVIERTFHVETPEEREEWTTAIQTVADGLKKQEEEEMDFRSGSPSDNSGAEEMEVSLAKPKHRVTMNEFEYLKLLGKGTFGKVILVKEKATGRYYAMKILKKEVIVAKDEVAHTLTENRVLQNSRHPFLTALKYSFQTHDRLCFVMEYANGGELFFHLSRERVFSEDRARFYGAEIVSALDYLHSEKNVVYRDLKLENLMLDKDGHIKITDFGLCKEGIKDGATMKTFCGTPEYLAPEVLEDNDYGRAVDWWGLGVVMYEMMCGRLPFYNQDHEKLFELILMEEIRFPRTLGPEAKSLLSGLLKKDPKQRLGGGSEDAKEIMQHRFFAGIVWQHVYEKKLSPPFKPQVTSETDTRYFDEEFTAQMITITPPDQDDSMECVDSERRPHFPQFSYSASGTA

| Structure (SMILES) | remaining activity at 1 µM [1] [%] | remaining activity at 1 µM [2] [%] | remaining activity at 1 µM [3] [%] | remaining activity at 1 µM [4] [%] | remaining activity at 1 µM [5] [%] | remaining activity at 1 µM [6] [%] | remaining activity at 1 µM [7] [%] | remaining activity at 1 µM [8] [%] | remaining activity at 10 µM [8] [%] | remaining activity at 1 µM [9] [%] | remaining activity at 1 µM [10] [%] | remaining activity at 1 µM [11] [%] | further results |
| --- | --- | --- | --- | --- | --- | --- | --- | --- | --- | --- | --- | --- | --- |
| Nc1cc(C(F)(F)F)c(-c2cc(N3CCOCC3)nc(N3CCOCC3)n2)cn1 [Buparlisib] | 100 | 100 | 100 | 92 | 94 | 87 | 94 | 99 | 100 | 99 | 100 | 92 | remaining activity at 10 µM [1, 12]: 100%; remaining activity at 10 µM [2, 12]: 100%; remaining activity at 10 µM [3, 12]: 91%; remaining activity at 10 µM [4, 12]: 98%; remaining activity at 10 µM ([5]; 10 µM, read-out: SRC (% of control at 10 µM)): 100%; remaining activity at 10 µM [6, 12]: 94%; remaining activity at 10 µM [7, 12]: 100%; remaining activity at 10 µM ([9]; 10 µM, read-out: STK35 (% of control at 10 µM)): 98%; remaining activity at 10 µM ([10]; 10 µM, read-out: SIK2 (% of control at 10 µM)): 93%; remaining activity at 10 µM [11, 12]: 100% |
| Cn1c(=O)n(-c2ccc(C(C)(C)C#N)cc2)c2c3cc(-c4cnc5ccccc5c4)ccc3ncc21 [Dactolisib, 2-methyl-2-[4-(3-methyl-2-oxo-8-quinolin-3-yl-2,3-dihydroimidazo[4,5-c]quinolin-1-yl)-phenyl] propionitrile] | 87 | 100 | 100 | 94 | 94 | 100 | 100 | 89 | – | 73 | 82 | 57 | – |
| COc1ncc(-c2ccc3nccc(-c4ccnnc4)c3c2)cc1NS(=O)(=O)c1ccc(F)cc1F [Omipalisib] | 87 | 87 | 100 | 88 | 100 | 100 | 59 | 100 | – | 100 | 100 | 100 | – |
| CS(=O)(=O)N1CCN(Cc2cc3nc(-c4cccc5[nH]ncc45)nc(N4CCOCC4)c3s2)CC1 [Pictilisib, 2-(1H-indazol-4-yl)-6-(4-methanesulfonyl-piperazin-1-ylmethyl)-4-morpholin-4-yl-t hieno[3,2-d]pyrimidine] | – | – | – | – | – | – | – | 100 | 63 | – | – | – | – |
| FC(F)c1nc2ccccc2n1-c1nc(N2CCOCC2)nc(N2CCOCC2)n1 [ZSTK474, 2-(difluoromethyl)-1-[4,6-di(4-morpholinyl)-1,3,5-triazin-2-yl]-1H-benzimidazole] | 100 | 100 | 100 | 89 | 100 | 100 | 100 | 82 | – | 89 | 78 | 100 | – |

From article PMC5564600 (Oncotarget, 2017)
